# Active and inactive are the calls of the source.
# What was measured:
# [1] = target: DNA dC->dU-editing enzyme APOBEC-3G (Homo sapiens, UniProt Q9HC16); experiment: inhibition of APOBEC3G ssDNA deamination – biochemical, fluorescence, single-stranded DNA substrate, SAR follow-up (AID 602136); type: functional; conditions: read-out: IC50_Mean
# [2] = target: DNA dC->dU-editing enzyme APOBEC-3A (Homo sapiens, UniProt P31941); experiment: SAR analysis of small molecule inhibitors of APOBEC3A DNA Deaminase via a fluorescence-based single-stranded DNA deaminase assay.; type: functional; conditions: read-out: IC50_Mean
# DNA dC->dU-editing enzyme APOBEC-3A, sequence (P31941 whole entry): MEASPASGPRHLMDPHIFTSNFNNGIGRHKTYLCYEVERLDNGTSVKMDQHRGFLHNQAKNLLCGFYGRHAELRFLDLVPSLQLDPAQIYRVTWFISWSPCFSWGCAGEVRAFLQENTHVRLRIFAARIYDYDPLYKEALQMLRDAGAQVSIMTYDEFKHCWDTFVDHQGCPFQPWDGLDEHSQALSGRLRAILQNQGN
# [3] = tested on: HEK293; experiment: inhibition of NOD1-driven NF-kB reporter – cell-based, luminescence, uHTS, primary screen (AID 1578); type: functional; conditions: Homo sapiens
# [4] = tested on: HEK293; experiment: cells; type: functional, cell-based; conditions: Homo sapiens
# [5] = tested on: HEK293; experiment: cells; type: functional, cell-based; conditions: Homo sapiens; remark: listed apart in the source
# [6] = Trypanosoma cruzi growth suppression in host cells – NIH3T3 host cells, beta-gal luminescence, confirmation (AID 2044); type: functional, cell-based;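 note: intracellular parasites grown in NIH/3T3 mouse fibroblasts as host cells; luminescent beta-galactosidase reporter signal from transgenic T. cruzi replicating inside host cells; inhibitors lower the luminescence signal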
# [7] = NIH3T3 cell viability loss – ATP luminescence, mouse fibroblasts, counter-screen, dose response (AID 2010); type: functional, cell-based;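 note: cells exposed to compound for about 90 hours before reading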
# [8] = target: T1, Heat shock factor protein 1 (Mus musculus, UniProt P38532); experiment: enhancement of HSF1-driven luciferase signal – cell-based, NIH3T3, luminescence, dose retest, confirmation (AID 435004); type: functional;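 note: stress induced by proteasome inhibitor MG132 added 30 min after compound; luciferase reporter driven by HSF1 response element in NIH3T3 cells; actives raise luminescence as potentiators of the MG132 stress response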
# T1 sequence (P38532 whole entry): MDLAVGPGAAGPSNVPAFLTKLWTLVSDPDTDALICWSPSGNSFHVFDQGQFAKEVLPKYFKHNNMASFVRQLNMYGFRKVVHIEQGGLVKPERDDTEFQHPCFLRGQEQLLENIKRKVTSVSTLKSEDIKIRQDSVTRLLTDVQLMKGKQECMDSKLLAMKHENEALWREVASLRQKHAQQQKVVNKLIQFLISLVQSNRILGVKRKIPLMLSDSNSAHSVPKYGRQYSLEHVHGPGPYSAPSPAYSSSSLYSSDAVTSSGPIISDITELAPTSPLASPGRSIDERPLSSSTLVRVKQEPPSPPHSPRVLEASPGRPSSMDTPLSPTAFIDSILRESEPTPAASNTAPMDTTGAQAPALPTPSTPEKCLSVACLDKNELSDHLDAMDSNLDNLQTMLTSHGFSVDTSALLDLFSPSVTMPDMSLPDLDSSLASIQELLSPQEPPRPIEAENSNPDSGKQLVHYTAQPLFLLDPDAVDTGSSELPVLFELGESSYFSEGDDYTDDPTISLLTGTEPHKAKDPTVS
# [9] = decrease of insulin promoter-GFP reporter – imaging, high-content screening, mouse beta cells (AID 1628); type: functional; conditions: MIN6
# [10] = MIN6 cell viability loss – mouse insulinoma, cytotoxicity control, dose response (AID 2122); type: functional;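 note: confirmatory high-throughput counterscreen run to flag cytotoxic compounds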
# [11] = reduction of Shn3 3'UTR-driven luciferase in osteoblasts – cell-based, Clone20 osteoblasts, firefly luciferase, cherry-picked, dose response (AID 624132); type: functional;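 note: firefly luciferase luminescence from reporter carrying the Shn3 3'UTR in osteoblasts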
# [12] = loss of viability in HepG2 cells – cell-based, CellTiter-Glo, cherry-picked, cytotoxicity control for Shn3 inhibitor project, dose response (AID 624134); type: functional
# [13] = non-specific 3'UTR reporter inhibition in Clone20-Shn3RL – cell-based, Renilla luciferase, cherry-picked, counter-screen for Shn3 inhibitor project, dose response (AID 624133); type: functional
# [14] = blockers of HIV-1 envelope-mediated cell-cell fusion – cherry-pick, dose response (AID 652057); type: functional, cell-based
# [15] = viability loss in CEM21 cells – cell-based, CellTiter-Glo luminescence, cherry-picked, cytotoxicity control for viral fusion inhibitor project, dose response (AID 652042); type: functional;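 note: potency for signal decrease meaning cytotoxicity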
# [16] = blockers of HIV-1 ZM109 envelope-driven cell-cell fusion – HeLa effector, CEM target cells, luciferase, cherry-pick, dose response (AID 652058); type: functional, cell-based;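 note: luciferase signal from HIV-1 Env mediated cell-cell fusion of effector and target cells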
# [17] = off-target signal loss in HeLa-CEM21 co-culture – HeLa F-luc CTL cells, cherry-picked, counter-screen for HIV-1 Env fusion inhibitor project, dose response (AID 652040); type: functional, cell-based;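 note: potency for signal decrease marking cytotoxic or nonspecific inhibition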
# [18] = luciferase reporter signal suppression in cells – H4 neuroglioma cells, luminescence, dose response (AID 1990); type: functional, cell-based
# [19] = target: E3 ubiquitin-protein ligase Mdm2 (Homo sapiens, UniProt Q00987); experiment: MDM2-luc reporter signal enhancers, multi-concentration potency testing, MDM2 ubiquitin-protein ligase inhibitor program, whole-cell format, luminescence detection, 384-well microplate (AID 1394); type: functional;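 note: MDM2 E3 inhibitors raise luminescence so EC50 is for signal enhancement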
# E3 ubiquitin-protein ligase Mdm2, sequence (Q00987 whole entry): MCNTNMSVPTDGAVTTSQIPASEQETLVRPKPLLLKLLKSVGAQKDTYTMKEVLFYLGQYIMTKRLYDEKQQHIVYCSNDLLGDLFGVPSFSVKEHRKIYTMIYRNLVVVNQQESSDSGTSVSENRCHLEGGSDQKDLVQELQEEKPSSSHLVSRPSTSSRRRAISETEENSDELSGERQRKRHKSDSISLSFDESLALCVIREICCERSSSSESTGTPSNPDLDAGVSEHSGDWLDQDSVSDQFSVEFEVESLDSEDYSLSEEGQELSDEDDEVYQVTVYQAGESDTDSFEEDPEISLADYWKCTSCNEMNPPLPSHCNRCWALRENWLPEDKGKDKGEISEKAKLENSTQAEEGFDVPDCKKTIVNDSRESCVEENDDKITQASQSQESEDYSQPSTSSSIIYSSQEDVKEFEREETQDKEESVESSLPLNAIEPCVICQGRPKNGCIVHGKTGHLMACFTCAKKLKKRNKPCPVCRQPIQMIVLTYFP
# [20] = Luminescence Cell-Based Dose Response HTS to Identify Inhibitors of 5'UTR Stem-Loop Driven Prion Protein mRNA Translation in H4 Neuroglioblastoma Cells. [Related pubchem assays: 1827 (Project Summary), 1813 (Primary HTS)]; type: functional
# [21] = target: Beta-galactosidase (Escherichia coli, UniProt Q8VNN2); experiment: PubChem AID 485352; type: functional
# Beta-galactosidase, sequence (Q8VNN2 whole entry): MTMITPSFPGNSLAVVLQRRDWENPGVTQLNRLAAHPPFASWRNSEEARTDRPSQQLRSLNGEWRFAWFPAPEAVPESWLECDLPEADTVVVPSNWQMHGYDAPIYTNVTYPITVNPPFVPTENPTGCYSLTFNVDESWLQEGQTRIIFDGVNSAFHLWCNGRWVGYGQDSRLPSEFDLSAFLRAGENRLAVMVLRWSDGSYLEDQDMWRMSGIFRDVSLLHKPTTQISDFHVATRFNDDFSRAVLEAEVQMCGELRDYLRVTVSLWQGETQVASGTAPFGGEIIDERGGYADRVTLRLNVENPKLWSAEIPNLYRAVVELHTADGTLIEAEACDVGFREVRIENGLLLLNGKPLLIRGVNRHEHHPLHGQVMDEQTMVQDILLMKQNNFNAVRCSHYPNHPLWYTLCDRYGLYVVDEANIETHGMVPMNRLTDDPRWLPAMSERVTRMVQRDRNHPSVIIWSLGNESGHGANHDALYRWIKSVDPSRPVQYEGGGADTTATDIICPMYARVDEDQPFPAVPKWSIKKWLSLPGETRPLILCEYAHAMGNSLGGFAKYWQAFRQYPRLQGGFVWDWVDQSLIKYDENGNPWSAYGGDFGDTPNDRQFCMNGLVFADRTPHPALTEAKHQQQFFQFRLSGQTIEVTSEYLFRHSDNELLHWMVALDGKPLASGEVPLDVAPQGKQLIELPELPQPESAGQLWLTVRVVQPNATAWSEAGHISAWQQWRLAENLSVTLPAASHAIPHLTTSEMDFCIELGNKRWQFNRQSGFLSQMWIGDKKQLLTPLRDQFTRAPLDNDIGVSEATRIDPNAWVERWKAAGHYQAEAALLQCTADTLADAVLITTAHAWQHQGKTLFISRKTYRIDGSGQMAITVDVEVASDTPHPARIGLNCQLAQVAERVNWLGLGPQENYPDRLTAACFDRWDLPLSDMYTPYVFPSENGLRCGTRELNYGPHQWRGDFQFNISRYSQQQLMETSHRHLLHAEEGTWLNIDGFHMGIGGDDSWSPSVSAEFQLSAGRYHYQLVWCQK
# [22] = target: G-protein coupled receptor 55 (Homo sapiens, UniProt Q9Y2T6); experiment: inhibition of LPI-stimulated GPR55 beta-arrestin translocation – imaging, U2OS, beta-arrestin-GFP, LPI agonist, primary screen (AID 2013); type: functional;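 note: antagonist potency measured as reduced agonist-driven arrestin aggregation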
# G-protein coupled receptor 55, sequence (Q9Y2T6 whole entry): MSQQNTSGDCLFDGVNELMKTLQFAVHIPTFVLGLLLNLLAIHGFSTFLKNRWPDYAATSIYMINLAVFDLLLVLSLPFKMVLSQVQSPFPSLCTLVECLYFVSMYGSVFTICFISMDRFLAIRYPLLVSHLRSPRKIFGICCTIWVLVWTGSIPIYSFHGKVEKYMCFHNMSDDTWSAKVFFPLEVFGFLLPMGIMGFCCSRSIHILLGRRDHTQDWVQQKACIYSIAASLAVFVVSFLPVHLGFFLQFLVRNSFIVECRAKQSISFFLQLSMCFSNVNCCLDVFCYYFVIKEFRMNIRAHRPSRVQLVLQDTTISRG
# [23] = target: T2, Type-1 angiotensin II receptor (Homo sapiens, UniProt P30556); experiment: antagonism of angiotensin II type 1 receptor – cell-based, uHTS hits, selectivity assay for APJ receptor antagonist project, dose response (AID 463214); type: functional;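 note: antagonist potency against angiotensin II stimulated AT1 response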
# T2 sequence (P30556 whole entry): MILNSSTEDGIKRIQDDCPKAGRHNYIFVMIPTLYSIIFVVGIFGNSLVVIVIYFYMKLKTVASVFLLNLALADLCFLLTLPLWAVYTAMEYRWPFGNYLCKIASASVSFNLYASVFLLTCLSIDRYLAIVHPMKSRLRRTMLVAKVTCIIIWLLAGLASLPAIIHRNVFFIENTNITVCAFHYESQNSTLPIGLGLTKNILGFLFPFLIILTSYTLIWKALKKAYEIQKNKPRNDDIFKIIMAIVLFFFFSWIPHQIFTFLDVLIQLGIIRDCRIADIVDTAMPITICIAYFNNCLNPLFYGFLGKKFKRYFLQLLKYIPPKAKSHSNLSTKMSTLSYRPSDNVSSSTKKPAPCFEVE
# [24] = tested on: Jurkat; experiment: blockers of NF-kB activation in T cells – Jurkat, luciferase reporter, luminescence, B- and T-cell, dose response (AID 489004); type: functional, cell-based; conditions: Homo sapiens;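 note: NF-kB luciferase reporter Jurkat cells stimulated with PMA plus ionomycin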
# [25] = HEK-293T viability loss, compound-treated – cell-based, uHTS hits, cytotoxicity control for B/T-cell NF-kB inhibitor project, dose response (AID 489019); type: functional;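 note: IC50 reflects cytotoxicity as loss of cell viability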
# [26] = tested on: INS1; experiment: INS-1E survival protection against cytokine death – cell-based, luminescence, retest, dose response (AID 449756); type: functional; conditions: Rattus norvegicus;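 note: cell death triggered by IL-1 beta plus TNF-alpha plus IFN-gamma mixture; protective hits raise ATP signal compared with cytokine alone wells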
# [27] = target: Photoreceptor-specific nuclear receptor (Homo sapiens, UniProt Q9Y5X4); type: functional, cell-based;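 note: CHO-S cells with Gal4-NCOR and VP16-NR2E3 two-hybrid luciferase reporter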
# Photoreceptor-specific nuclear receptor, sequence (Q9Y5X4 whole entry, the tested form may be a part): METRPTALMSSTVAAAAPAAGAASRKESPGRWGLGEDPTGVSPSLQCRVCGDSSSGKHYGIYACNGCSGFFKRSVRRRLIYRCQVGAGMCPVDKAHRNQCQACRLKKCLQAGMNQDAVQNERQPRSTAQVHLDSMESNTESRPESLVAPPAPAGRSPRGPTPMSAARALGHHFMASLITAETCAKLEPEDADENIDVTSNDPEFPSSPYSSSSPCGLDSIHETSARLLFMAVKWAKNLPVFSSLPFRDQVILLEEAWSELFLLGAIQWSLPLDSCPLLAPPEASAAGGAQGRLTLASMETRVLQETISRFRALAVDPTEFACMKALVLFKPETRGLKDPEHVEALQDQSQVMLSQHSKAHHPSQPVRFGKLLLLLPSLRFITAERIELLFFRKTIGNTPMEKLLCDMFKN
# DNA dC->dU-editing enzyme APOBEC-3G, sequence (Q9HC16 whole entry): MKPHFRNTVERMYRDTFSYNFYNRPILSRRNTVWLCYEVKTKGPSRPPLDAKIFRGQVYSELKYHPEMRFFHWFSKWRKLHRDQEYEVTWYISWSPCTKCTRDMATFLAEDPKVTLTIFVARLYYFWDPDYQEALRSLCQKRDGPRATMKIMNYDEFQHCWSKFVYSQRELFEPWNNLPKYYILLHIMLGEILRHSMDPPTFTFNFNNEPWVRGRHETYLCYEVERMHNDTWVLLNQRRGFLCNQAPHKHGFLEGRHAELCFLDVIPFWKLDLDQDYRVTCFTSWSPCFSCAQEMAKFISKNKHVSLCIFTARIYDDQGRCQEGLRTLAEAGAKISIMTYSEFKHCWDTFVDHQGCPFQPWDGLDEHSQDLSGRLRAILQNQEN
compound,measurement,setting,value
O=C(CSc1nnc2scc(-c3ccccc3)n12)Nc1cccc(C(F)(F)F)c1,IC50,[1],> 99 µM (inactive)
same,IC50,[2],> 99 µM (inactive)
Cc1cc(C(=O)N/N=C/c2ccc([N+](=O)[O-])s2)c2ccccc2n1,EC50,[3],7.6 µM (active)
same,IC50,[4],15.8 µM (active)
same,IC50,[5],> 20 µM (inactive)
same,EC50,[6],0.623 µM (active)
same,EC50,[7],> 30 µM (not active)
same,EC50,[8],13 µM (active)
COc1ccc(Nc2cc(C)nc(NCc3ccccc3)n2)cc1,IC50,[9],1.14 µM (active)
same,IC50,[10],0.699 µM (active)
same,EC50,[6],0.12 µM (active)
same,EC50,[7],> 60 µM (not active)
same,AC50,[11],3.9 µM (active)
same,AC50,[12],22 µM (active)
same,AC50,[13],0.565 µM (active)
same,AC50,[14],8.45 µM (active)
same,AC50,[15],26.7 µM (active)
same,AC50,[16],3.16 µM (active)
same,AC50,[17],21.2 µM (active)
C=C1C(=O)O[C@@H]2C[C@@H](C)[C@@H]3C=CC(=O)[C@@]3(C)[C@@H](O)[C@H]12 [HELENALIN],EC50,[18],4.62 µM (inconclusive)
same,EC50,[19],0.42 µM (active)
same,EC50,[20],8.32 µM (active)
same,EC50,[21],> 40 µM (inactive)
same,IC50,[22],2.64 µM (active)
same,IC50,[23],18.6 µM (active)
same,IC50,[24],1.02 µM (active)
same,IC50,[25],> 80 µM (inactive)
same,AC50,[26],2.27 µM (active)
same,AC50,[11],0.825 µM (active)
same,AC50,[12],4.35 µM (active)
same,AC50,[13],1.53 µM (active)
same,IC50,[27],1.92 µM (active)
